Reference: patent publication US20250221967A1, “COMPOSITIONS AND METHODS FOR THE TREATMENT OF CANCER AND OTHER PROLIFERATIVE DISEASES” (THE WISTAR INSTITUTE OF ANATOMY AND BIOLOGY, priority 2022, published 2025)
pIC50: −log10 of the molar value. “Also recorded” adds a separate entry of the source. Each block holds one molecule with its values, some of them ahead of it.

Assays:
Rb-NT (380-785) = molecular target: T1, Rb-NT (380-785) (Homo sapiens, UniProt P06400); test: Inhibition of AP-8-239 binding to Rb-NT (380-785); details: for Inhibition of AP-8-239 binding Rb-NT (380-785) Top: top of inhibition curve
T1 construct: Rb-NT (380-785)
T1 sequence (P06400 380-785): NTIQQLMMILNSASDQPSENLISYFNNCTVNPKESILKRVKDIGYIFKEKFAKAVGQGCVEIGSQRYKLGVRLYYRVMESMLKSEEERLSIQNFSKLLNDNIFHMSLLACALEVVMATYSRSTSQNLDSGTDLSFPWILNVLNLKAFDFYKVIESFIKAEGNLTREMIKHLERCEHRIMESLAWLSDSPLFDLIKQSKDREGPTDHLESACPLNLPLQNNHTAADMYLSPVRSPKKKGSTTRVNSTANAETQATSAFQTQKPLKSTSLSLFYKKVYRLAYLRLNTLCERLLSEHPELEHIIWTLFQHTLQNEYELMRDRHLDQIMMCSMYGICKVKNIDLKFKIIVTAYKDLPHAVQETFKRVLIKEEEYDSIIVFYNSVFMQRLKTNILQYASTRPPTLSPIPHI

[1] = molecular target: T2, HDAC1 binding Rb-NT (380-785) (Homo sapiens, UniProt P06400); test: Inhibition of HDAC1 binding to Rb-NT (380-785); details: for Inhibition of HDAC1 binding Rb-NT (380-785) Top: top of inhibition curve
T2 construct: Rb-NT (380-785)
T2 sequence (P06400 380-785): T1 sequence (P06400 380-785)
Method: Additionally, the binding of different proteins was evaluated. The binding of E7, E2F1, MDM2, and HDAC1 were evaluated to Rb fragments. The compounds tested herein where shown inhibit HDAC1 binding to the Rb fragments in the LxCxE binding pocket.

PDA T high tumor cells = test: Subcutaneous PDA T high tumor model in B6 wild-type mice; type: in vivo; details: measured until day 31
Method: (§1) (FIGS. 2A-B) B6 wild-type mice were orthotopically injected with PDA T high cell line into the pancreas. T high PDA cell line was previously generated by Dr. Stanger's lab (Upenn), this tumor cell line can induce some T cell infiltration opposite to T low PDA cell line (shown in FIGS. 4A-C). Mice were treated with 7 daily AP-3-84 or vehicle starting from day 4. On day 22 pancreatic tumors were collected and compared across two groups. […] (FIG. 2C) B6 wild-type mice were injected subcutaneously with PDA T high tumor cells and treated with AP-3-84 or vehicle as in FIGS. 2A-B. Tumor growth was measured until day 31. […] (FIG. 2D) Same experiment as in FIGS. 2A-B was conducted in NSG immunodeficient mice.

Rb protein = molecular target: T3, Rb protein (Homo sapiens, UniProt P06400); test: Iodoacetamide capping of Cys residues of compound-treated Rb protein, MALDI-MS; details: for # of CH2CONH2: RB + compound + Iodoacetamide, RB + DMSO control gives 8; for Cys residues masked from reacting with the iodoacetamide: Rb protein treated with compound, then iodoacetamide
T3 sequence (P06400 380-785 limits assumed): T1 sequence (P06400 380-785)
Method: Further studies were conducted to evaluate the binding of the compounds to the Rb protein. Using MS, the […] that had been treated with excess amounts of the compounds were then capped with iodoacetamide. […] Furthermore, there was a significant reduction in MS/MS sequencing events. […] One explanation is that the compound activates Cys706 for nucleophilic attack from Cys712.
In order to confirm that, the Rb protein was treated with iodoacetamide to cap the Cys residues. The predicted chart is shown below.

[2] = test system: Thioglycollate-induced macrophages; test: Gene expression changes by RNA-Seq; type: cell-based; details: 10 uM, 4 hours, listed as AP-3-84
Method: (§2) FIGS. 1A-B. Novel Rb1 modulator AP-3-84 induces cell death specifically in macrophages. (FIG. 1A) Tumor PDAC cells and thioglycolate-induced macrophages were cultured with different concentrations of AP-3-84 Rb1 modulator for 16 hours with the following assessment of viability by Annexin V/DAPI staining. […] (FIG. 1B) Thioglycollate-induced macrophages were cultured with 10 uM AP-3-84 for 4 hours and gene expression changes were studied by RNA-Seq.

[3] = test system: AML cell lines (THP-1, AML-193, Kasumi-1); test: Cell death in AML cell lines (Annexin-V flow cytometry, Alamar blue); type: cell-based
Method: (§3) Additionally, the inventors obtained test results showing the compounds to be effective in models of AML. AML cell lines (THP-1, AML-193, Kasumi-1) were cultured at different cell concentration (75000/ml, 125,000/ml and 200,000/ml) and exposed to 5, 10, 15, 20 μM concentration of AP-3-84. Cell differentiation was induced by 100 ng/ml PMA over 24 hours. Nonhemopoietic cancer cells (ID8, PDAC) were analyzed after exposure to AP-3-84. Cell death outcomes were measured by Annexin-V using flowcytometry or viability measures by Alamar blue assay. Protein levels were measured by Western blots at intervals between 30 min and 6 hours after exposure to AP-3-84 for total Rb1, phosphorylated Rb1, ATF3, BIM, NOXA, BaK, Bax, cleaved PARP, cleaved Caspase-3. Cytoplasmic and mitochondrial lysates were examined. Confocal immunocytochemistry on Rb1 expression in nucleus versus cytoplasm was performed.

PDA T high cell line [4] = test: Orthotopic PDA T high tumor model in NSG immunodeficient mice; type: in vivo
Method: as §1

THP-1 cell line = test: Western blots of ER stress and apoptosis proteins; type: cell-based; details: Western blot, listed as AP-3-84
Method: as §3

[5] = test system: tumor-associated macrophages; test: Flow cytometry of immune cells in orthotopic PDA T high model; type: in vivo, mice
Method: FIGS. 3A-B. AP-3-84 depletes tumor macrophages and re-shapes immune cell landscape. (FIGS. 3A-B) B6 wild-type mice were orthotopically injected with PDA T high cell line into the pancreas and treated with AP-3-84 or vehicle as in FIGS. 2A-D. Tumor cells on day 12 (FIG. 3A) or peritoneum cells on day 21 (FIG. 3B) were analyzed by flow cytometry. […] Significant effects on activation and differentiation of immune cells in tumor and periphery were also found (not shown).

PDA T high cell line [6] = test: Orthotopic PDA T high pancreatic tumor model in B6 wild-type mice; type: in vivo; details: 7 daily treatments from day 4, tumors collected day 22, listed as AP-3-84
Method: as §1
Statistical analysis of the data was conducted using unpaired Student t-test criteria with additional false discovery rate adjustment for multiple comparisons for gene expression analysis.

[7] = test system: Nonhemopoietic cancer cells (ID8, PDAC); test: Cell death in nonhemopoietic cancer cells; type: cell-based; details: listed as AP-3-84
Method: as §3

[8] = test system: PMA differentiated THP1 cells; test: Cell death in PMA differentiated THP-1 cells; type: cell-based; details: PMA treated THP-1 cells; listed as AP-3-84
Method: as §3

PDA T low cell line = test: PDA T low tumor model (orthotopic or subcutaneous) in B6 wild-type mice; type: in vivo
Method: FIGS. 4A-C. AP-3-84 renders more resistant PDA tumors with low T cell infiltration into immunotherapy responsive tumors. […] Statistical analysis of the data was conducted using unpaired Student t-test criteria with additional false discovery rate adjustment for multiple comparisons for gene expression analysis.

Tumor PDAC cells = test: Tumor cell viability by Annexin V/DAPI staining; type: cell-based; details: different concentrations, 16 hours, listed as AP-3-84
Method: as §2

[9] = test system: nonhemopoitic cancer cells; test: Cell proliferation by CFSE dye dilution; type: cell-based; details: nonhemopoietic cancer cells
Text: FIG. 22A-22C. […] A. Graphs indicates the total percentage of cell death (annexin V+ and AnnexinV+Live-Dead+ cells) in PMA treated THP-1 cells. […] C. Histogram indicates cell proliferation, measured by CSFE dye dilution in presence of AP-3-84 and other inhibitors. Bar diagram indicates average MFI of CFSE dye in presence of different inhibitors.

[10] = test system: thioglycolate-induced macrophages; test: Macrophage viability by Annexin V/DAPI staining; type: cell-based; details: different concentrations, 16 hours, listed as AP-3-84
Method: as §2

pIC50 (Rb-NT (380-785)): 6.44 | Inhibition of AP-8-239 binding Rb-NT (380-785) Top (Rb-NT (380-785)): 83.3% | pIC50 [1]: 7.11 | Inhibition of HDAC1 binding Rb-NT (380-785) Top [1]: 72%
Structure (SMILES): Cn1c(=O)sn(-c2cccc(OCCCN)c2)c1=O [AP-08-231]

pIC50 (Rb-NT (380-785)): 6.35 | Inhibition of AP-8-239 binding Rb-NT (380-785) Top (Rb-NT (380-785)): 90.1% | # of CH2CONH2 (Rb protein): 2 | Cys residues masked from reacting with the iodoacetamide (Rb protein): 6 | pIC50 [1]: 7.05 | Inhibition of HDAC1 binding Rb-NT (380-785) Top [1]: 75%
Structure (SMILES): COc1cccc(-n2sc(=O)n(C)c2=O)c1 [AP-03-084]
tumor growth (PDA T high tumor cells): Significant reduction of tumor growth | gene expression changes [2]: induction of oxidative and ER stress programs with a clear activation of p53-dependent genes and caspases; also recorded: induced strong unfolded protein and oxidative stress response with the induction of apoptosis pathway and p53 signaling | cells undergoing cell death ([3]; 5 minute exposure, 24 hours later): 70-80% | concentration at which induction of cell death was observed ([3]; AML cells, tested at 5, 10, 15, 20 μM): ≥ 10 µM | cell death in AML cell lines ([3]; THP-1, AML-193, Kasumi-1, annexin V+ and AnnexinV+Live-Dead+ cells): induced cell death in different AML cell lines | tumor growth (PDA T high cell line [4]): No effect of AP-3-84 treatment was observed | apoptosis proteins (NOXA, BIM, cleaved-PARP, cleaved Caspase-3) (THP-1 cell line; 10 uM in FIG. 23A): increased mitochondrial protein levels of NOXA, BIM, cleaved-PARP, and cleaved Caspase-3; also recorded: induction of Cleaved-PARP, Noxa and Cleaved-caspase 3 | Bax, Bak, Bcl-2, Bcl-xl levels (THP-1 cell line): Bax and Bak levels were unchanged; also recorded: Bax Bcl-2 and Bcl-xl does not get altered | ER-stress signals (ATF4, ATF3, peIF2a) (THP-1 cell line): induced higher levels of ER-stress signals (higher ATF4, ATF3); also recorded: Induction of ATF4, ATF3 and peIF2a | immune cell composition in the peritoneum ([5]; peritoneum cells on day 21, flow cytometry): re-shapes the immune cell composition in the peritoneum | tumor-associated macrophages in tumors ([5]; tumor cells on day 12, flow cytometry, listed as AP-3-84): depleting macrophages and inducing T cell infiltration; also recorded: effectively depletes tumor-associated macrophages in tumors | pancreatic tumor growth (PDA T high cell line [6]): significant reduction of tumor growth; also recorded: significantly reduced the tumor growth in mice | cell death [7]: no cell death was induced; also recorded: does not induce cell death in ID8 cells | cell death [8]: no cell death was induced; also recorded: minor effect on PMA treated THP-1 cells | tumor growth, AP-3-84 treatment alone (PDA T low cell line; orthotopic and subcutaneous models): didn't dramatically affect the tumor growth | tumor growth, combined with Immunotherapy (PDA T low cell line; with anti-PD1/anti-CTLA4/anti-CD40, listed as AP-3-84): decrease tumor burden in T-low-PDA model; also recorded: effectively reduced the tumor growth compared to monotherapies | PDA tumor cell viability / death of other cell types (Tumor PDAC cells): not of the other cell types (neither tumor nor T cells); also recorded: didn't affect PDA tumor cell viability | cell division rate [9]: No effect in cell division rate | macrophage cell death [10]: can induce cell death of TAMs and thioglycolate-induced macrophages; also recorded: induced macrophage cell death in dose-dependent manner

pIC50 (Rb-NT (380-785)): 7.27 | Inhibition of AP-8-239 binding Rb-NT (380-785) Top (Rb-NT (380-785)): 90.6% | pIC50 [1]: 7.08 | Inhibition of HDAC1 binding Rb-NT (380-785) Top [1]: 71%
Structure (SMILES): Cn1c(=O)sn(-c2cccc(OCCCNC(=O)c3ccccc3)c2)c1=O [AP-08-238]

pIC50 (Rb-NT (380-785)): 5.53 | Inhibition of AP-8-239 binding Rb-NT (380-785) Top (Rb-NT (380-785)): 83.8% | pIC50 [1]: 4.90 | Inhibition of HDAC1 binding Rb-NT (380-785) Top [1]: 69%
Structure (SMILES): C=CC(=O)N(C)C(=O)Nc1cccc(OC)c1 [SA-01-048]

Second part, the molecule before the results:

Structure (SMILES): O=c1sn(-c2cccc3ccccc23)c(=O)n1Cc1ccccc1 [Tideglusib, reference compound]
pIC50 (Rb-NT (380-785)): 6.90 | Inhibition of AP-8-239 binding Rb-NT (380-785) Top (Rb-NT (380-785)): 86.9% | pIC50 [1]: 7.40 | Inhibition of HDAC1 binding Rb-NT (380-785) Top [1]: 77%

Structure (SMILES): Cn1c(=O)sn(-c2cccc(OCCCNC(=O)CC[C@@H](NC(=O)c3ccc(NCCc4cc5c(=O)[nH]c(N)nc5[nH]4)cc3)C(=O)O)c2)c1=O [AP-08-237]
pIC50 (Rb-NT (380-785)): 7.66 | Inhibition of AP-8-239 binding Rb-NT (380-785) Top (Rb-NT (380-785)): 85.9% | pIC50 [1]: 6.77 | Inhibition of HDAC1 binding Rb-NT (380-785) Top [1]: 72%

Structure (SMILES): Cn1c(=O)sn(-c2cccc(OCCCNC(=S)Nc3ccc4c(c3)C(=O)OC43c4ccc(O)cc4Oc4cc(O)ccc43)c2)c1=O [AP-08-239]
# of CH2CONH2 (Rb protein): 6 | Cys residues masked from reacting with the iodoacetamide (Rb protein): 2
